Results as given in PMC7915940, “Synthesis, Antitumor and Antibacterial Studies of New Shortened Analogues of (KLAKLAK)2-NH2 and Their Conjugates Containing Unnatural Amino Acids” (Molecules, 2021).
Where two headings read alike, the source gives them in different places. Non-standard residues stand in square brackets, D forms with d. Residues, ends and D or L forms follow the SMILES beside them. *: point of attachment. Acetyl(1,8-naphthalimido) = O=C1c2cccc3cccc(c23)C(=O)N1CC(=O)*; Caffeoyl = O=C(/C=C/c1ccc(O)c(O)c1)*; Nle = CCCC[C@H](N)C(=O)O; βAla = NCCC(=O)O

What was measured:
[1] = system: MDA-MB-231 cells; assay type: cell-based, human; settings: 72 h
Experimental: (§1) The compounds were studied for antiproliferative activity by standard MTT dye reduction assay. Cell cultures from different cell line types (MCF-10A, MCF-7 and MDA-MB-231) were incubated with the test substances at a concentration of 15 to 2000 μM for 72 h. The antiproliferative activity expressed in % relative to the negative control was determined. The obtained results are shown on Figure 2. MCF-10A is a reliable model for normal human mammary epithelial cells, which serves as a control in experiments to determine antitumor activity. The IC50 values, found in MCF-10A, are used to calculate a selective index (SI), which assesses the potential of a substance to be used as an antitumor agent. We used the following formula to calculate the selective index SI = IC50 of MCF-10A / IC50 of tumor cells. The highest selective index with respect to MCF-7 is shown by the substances: Si3 (SI = 8.35), Si11 (SI = 2.62) and Si1 (SI = 1.24).
(§2) The antiproliferative activity testing was performed on cell cultures from several human cell lines using the standard MTT-dye reduction assay, described by Mosmann. The assay is based on the metabolism of the tetrazolium salt MTT to insoluble formazan by mitochondrial reductases. The formazan concentration can be determined spectrophotometrically. The measured absorption is an indicator of cell viability and metabolic activity. Cell lines: mammary gland type A adenocarcinoma ER+, PR+, HER2- (MCF-7), triple-negative breast cancer ER-, PR-, HER2- (MDA-MB-231) and breast, non-tumorigenic epithelial cell line (MCF-10A) were used in experiments. The cell lines were routinely grown as monolayers in 75 cm^2 tissue culture flasks under standard conditions (described above). Cells were plated at a density of 1 × 10^3 cells in 100 µL in each well of 96-well flat-bottomed microplates and allowed to adhere for 24 h before treatment with test compounds. A concentration range from 15 to 2000 μM was applied for 72 h. The formazan absorption was registered using a microplate reader at λ = 540 nm. Antiproliferative activities were expressed as IC50 values (concentrations required for 50% inhibition of cell growth), calculated using non-linear regression analysis (GraphPad Software, San Diego, CA, USA).

[2] = system: MCF-10A cells; assay type: cell-based, human; settings: 72 h
Experimental: as §1, §2

[3] = system: MCF-7 cells; assay type: cell-based, human; settings: for selectivity with respect to the studied tumor cell lines (in words): MCF-7 and MDA-MB-231 versus MCF-10A
Experimental: as §1, §2

[4] = In vitro cytotoxicity testing (3T3 NRU test); assay type: cell-based; settings: mouse
Experimental: The newly synthesized compounds were studied for cytotoxicity by standard method (3T3 NRU-test). The cells were incubated with the test substances at a concentration of 30 to 4000 μM for 24 h. The cytotoxicity expressed, in % relative to the negative control was determined.
The cytotoxicity testing was performed as described by Borenfreund et al. and the latest modification of the validated BALB/3T3 clone A31 Neutral Red Uptake Assay (3T3 NRU test) for cytotoxicity testing. BALB/3T3, clone A31 mouse embryo cells were grown as monolayer in 75 cm^2 tissue culture flasks in DMEM high-glucose (4.5 g/L), supplemented with 10% FBS and antibiotics (Sigma-Aldrich, Schnelldorf, Germany). Cultures were maintained at 37.5 °C in a humidified atmosphere under 5% CO2. Cells were plated at a density of 1 × 10^4 cells in 100 μL culture medium in each well of 96-well flat-bottomed microplates (Biologix, Lenexa, KS, USA) and allowed to adhere for 24 h. The test compounds, dissolved in DMSO and diluted in culture medium to concentration range 30 to 4000 μM were then added and the cell cultures were incubated for additional 24 h. […] After treatment with Neutral Red medium, washing and treatment with the Ethanol/Acetic acid solution (NR Desorb), the absorption was measured on a TECAN microplate reader (TECAN, Grödig, Austria) at wavelength 540 nm.

[5] = system: Escherichia coli K12 407; assay type: cell-based; settings: for antibacterial effect, zones free of microbial growth (in words): agar diffusion, E. coli K12 407
Experimental: Antibacterial properties of the obtained new peptides and their conjugates were tested against E. coli K12 407 strain. Antibacterial activity of tested compounds was proven through appear of free zone around the loaded disk-paper by means of agar-diffusion method (Figure 3).
All newly synthesized derivatives of (KLAKLAK)2-NH2 at two concentrations 10 μM and 20 μM, were tested against facultative anaerobic gram-negative Esherichia coli NBIMCC K12 407. The strains were obtained from the culture collection of Bulgarian National Bank for Industrial Microorganisms and Cell Cultures (Sofia, Bulgaria) and were cultured in Luria-Bertani (LB) medium (Mumbai, India). The microbiological tests were performed using the agar diffusion method. The overnight pure cultures from tested strains were prepared in liquid LB-medium. A single colony was used for inoculating the liquid LB medium in order to maintain initial bacterial concentration of 1 × 10^7 cfu/mL. 100 µL of bacterial suspensions were seeded on agar plates with solid LB-medium. After 30 min, sterile paper disks 6 mm in diameter were soaked with tested samples in amount of 6 µL and placed on the agar petri dishes surface. The plates were incubated for 24 h at 37 °C. The appeared inhibition zones and their size were measured. The sterile paper disks soaked with water was used as blank. Mean values were calculated by performing the experiments in triplicates.

[6] = MDA-MB-231, MTT, 15 to 2000 μM, read-out: IC50 of Mean ± SD, Antiproliferative Activity, MDA-MB-231

Compound: N.N.[Cl][Pt][Cl] [Cisplatin, reference compound]
- IC50 [1, 6]: 1.83 ± 0.13 µM

Compound: CC(C)C[C@H](NC(=O)[C@H](CCCCN)NC(=O)[C@H](C)NC(=O)[C@H](CC(C)C)NC(=O)[C@H](CCCCN)NC(=O)[C@H](CCCCN)NC(=O)[C@H](C)NC(=O)[C@H](CC(C)C)NC(=O)[C@H](CCCCN)NC(=O)[C@H](C)NC(=O)[C@H](CC(C)C)NC(=O)[C@@H](N)CCCCN)C(=O)N[C@@H](C)C(=O)N[C@@H](CCCCN)C(N)=O [Si1, (KLAKLAK)2-NH2]
- IC50 ([2]; MCF-10A, MTT, 15 to 2000 μM, read-out: IC50 of Mean ± SD, Antiproliferative Activity, MCF-10A): 154 ± 6.53 µM
- IC50 [1, 6]: 746 ± 7.6 µM
- IC50 ([3]; MCF-7, MTT, 72 h, 15 to 2000 μM, read-out: IC50 of Mean ± SD, Antiproliferative Activity, MCF-7): 124 ± 8.12 µM
- selective index (SI) with respect to MCF-7 ([3]; SI = IC50 of MCF-10A / IC50 of MCF-7): 1.24
- IC50 at 24 h ([4]; BALB/3T3 cells, NRU, 24 h, 30 to 4000 μM, read-out: IC50 of Mean ± SD, Cytotoxicity, BALB/3T3): 365 ± 4.08 µM
- Average inhibition zones size ([5]; 20 μM, E. coli K12 407, 24 h at 37 °C, three replicates ± SD): 5 ± 0.15 mm
- antibacterial effect, zones free of microbial growth (in words) [5]: clear zones free of microbial growth

Compound: CC(C)C[C@H](NC(=O)[C@H](CCCCN)NC(=O)CCNC(=O)[C@H](CC(C)C)NC(=O)[C@H](CCCCN)NC(=O)CN1C(=O)c2cccc3cccc(c23)C1=O)C(=O)NCCC(=O)N[C@@H](CCCCN)C(N)=O [Si2, 1,8-naphthalimideG-KLβAKLβAK-NH2] ({Acetyl(1,8-naphthalimido)}-KL[βAla]KL[βAla]K-NH2)
- IC50 [2]: 666 ± 20.9 µM
- IC50 [1]: 840 ± 21.2 µM
- IC50 ([3]; 72 h): 663 ± 20 µM
- selectivity with respect to the studied tumor cell lines (in words) [3]: no significant SI is observed
- IC50 at 24 h [4]: 1430 ± 48.4 µM

Compound: CC(C)C[C@H](NC(=O)[C@H](CCCCN)NC(=O)CCNC(=O)[C@H](CC(C)C)NC(=O)[C@@H](N)CCCCN)C(=O)NCCC(=O)N[C@@H](CCCCN)C(N)=O [Si3, KLβAKLβAK-NH2] (H-KL[βAla]KL[βAla]K-NH2; N-terminus assumed)
- IC50 [2]: 1470 ± 104 µM
- IC50 [1]: > 2000 µM
- IC50 ([3]; 72 h): 176 ± 4.66 µM
- selective index (SI) with respect to MCF-7 ([3]; 72 h): 8.33
- selectivity with respect to the studied tumor cell lines (in words) [3]: significant selective index
- IC50 at 24 h [4]: 2870 ± 130 µM

Compound: CC(C)C[C@H](NC(=O)[C@H](CCCCN)NC(=O)[C@H](C)NC(=O)[C@H](CC(C)C)NC(=O)[C@@H](N)CCCCN)C(=O)N[C@@H](C)C(=O)N[C@@H](CCCCN)C(N)=O [Si6, KLAKLAK-NH2] (H-KLAKLAK-NH2; N-terminus assumed)
- IC50 [2]: > 2000 µM
- IC50 [1]: > 2000 µM
- IC50 ([3]; 72 h): > 2000 µM
- selectivity with respect to the studied tumor cell lines (in words) [3]: do not show selectivity
- IC50 at 24 h [4]: > 4000 µM
- activity against Escherichia coli K12 407 (in words) ([5]; 20 μM): moderate activity
- antibacterial effect, zones free of microbial growth (in words) [5]: clear zones free of microbial growth

Compound: CC(C)C[C@H](NC(=O)[C@H](CCCCN)NC(=O)CN1C(=O)c2cccc3cccc(c23)C1=O)C(=O)N[C@@H](C)C(=O)N[C@@H](CCCCN)C(=O)N[C@@H](CC(C)C)C(=O)N[C@@H](C)C(=O)N[C@@H](CCCCN)C(N)=O [Si7, 1,8-naphthalimideG-KLAKLAK-NH2] ({Acetyl(1,8-naphthalimido)}-KLAKLAK-NH2)
- IC50 [2]: 1140 ± 64.5 µM
- IC50 [1]: > 2000 µM
- IC50 ([3]; 72 h): 1200 ± 132 µM
- selectivity with respect to the studied tumor cell lines (in words) [3]: do not show selectivity
- IC50 at 24 h [4]: 3420 ± 51.3 µM

Compound: CC(C)C[C@H](NC(=O)[C@H](CCCCN)NC(=O)/C=C/c1ccc(O)c(O)c1)C(=O)NCCC(=O)N[C@@H](CCCCN)C(=O)N[C@@H](CC(C)C)C(=O)NCCC(=O)N[C@@H](CCCCN)C(N)=O [Si11, Caf-KLβAKLβAK-NH2] (Caffeoyl-KL[βAla]KL[βAla]K-NH2)
- IC50 [2]: 597 ± 53 µM
- IC50 [1]: 1090 ± 70.7 µM
- IC50 ([3]; 72 h): 229 ± 7.18 µM
- selective index (SI) with respect to MCF-7 ([3]; 72 h): 2.62
- selectivity with respect to the studied tumor cell lines (in words) [3]: significant selective index
- IC50 at 24 h [4]: 742 ± 18.5 µM

Compound: CCCC[C@H](NC(=O)[C@H](CCCCN)NC(=O)[C@H](C)NC(=O)[C@H](CCCC)NC(=O)[C@@H](N)CCCCN)C(=O)N[C@@H](C)C(=O)N[C@@H](CCCCN)C(N)=O [Si13, KnLAKnLAK-NH2] (H-K[Nle]AK[Nle]AK-NH2; N-terminus assumed)
- IC50 [2]: > 2000 µM
- IC50 [1]: > 2000 µM
- IC50 ([3]; 72 h): 1700 ± 112 µM
- IC50 at 24 h [4]: > 4000 µM

Compound: CCCC[C@H](NC(=O)[C@H](CCCCN)NC(=O)CN1C(=O)c2cccc3cccc(c23)C1=O)C(=O)N[C@@H](C)C(=O)N[C@@H](CCCCN)C(=O)N[C@@H](CCCC)C(=O)N[C@@H](C)C(=O)N[C@@H](CCCCN)C(N)=O [Si14, 1,8-naphthalimideG-KnLAKnLAK-NH2] ({Acetyl(1,8-naphthalimido)}-K[Nle]AK[Nle]AK-NH2)
- IC50 [2]: 631 ± 51.2 µM
- IC50 [1]: 1050 ± 49.8 µM
- IC50 ([3]; 72 h): 593 ± 60.3 µM
- selectivity with respect to the studied tumor cell lines (in words) [3]: No selectivity
- IC50 at 24 h [4]: 2890 ± 61.4 µM
- activity against Escherichia coli K12 407 (in words) ([5]; 20 μM): moderate activity
- antibacterial effect, zones free of microbial growth (in words) [5]: clear zones free of microbial growth

Compound: CCCC[C@H](NC(=O)[C@H](CCCCN)NC(=O)/C=C/c1ccc(O)c(O)c1)C(=O)N[C@@H](C)C(=O)N[C@@H](CCCCN)C(=O)N[C@@H](CCCC)C(=O)N[C@@H](C)C(=O)N[C@@H](CCCCN)C(N)=O [Si15, Caf-KnLAKnLAK-NH2] (Caffeoyl-K[Nle]AK[Nle]AK-NH2)
- IC50 [2]: 147 ± 7.96 µM
- IC50 [1]: 346 ± 7.91 µM
- IC50 ([3]; 72 h): 140 ± 7.12 µM
- selectivity with respect to the studied tumor cell lines (in words) [3]: No selectivity
- IC50 at 24 h [4]: 1514 ± 12.2 µM
